Converted amounts (≈) assume the structure as drawn.
Tests used:
Rattus norvegicus [1] = assay: Analgesic activity in streptozotocin induced diabetic peripheral neuropathic mechanical allodynia in overnight fasted Sprague-Dawley rat model assessed as efficacy at 0.1 mg/kg, po measured at 5.5 hrs post dose; assay type: functional
[2] = Cmax in overnight fasted Sprague-Dawley rat plasma with streptozotocin induced diabetic peripheral neuropathic mechanical allodynia at 0.1 mg/kg, po measured at 5.5 hrs post dose; assay type: ADME, organism-based; design: route oral, time 5.5 hrs, dose 0.1 mg/kg
Rattus norvegicus [3] = assay: Analgesic activity in streptozotocin induced diabetic peripheral neuropathic mechanical allodynia in overnight fasted Sprague-Dawley rat model assessed as efficacy at 0.3 mg/kg, po measured at 5.5 hrs post dose; assay type: functional
[4] = Tmax in monkey at 3 mg/kg, po; assay type: ADME, organism-based, Macaca mulatta; settings: rhesus monkey, in vivo
[5] = Lipophilicity, log D of the compound at pH 7.4; assay type: physicochemical; settings: buffer
[6] = Clearance in mouse at 2 mg/kg, iv; assay type: ADME, organism-based; settings: in vivo
[7] = Tmax in dog at 3 mg/kg, po; assay type: ADME, organism-based, Canis lupus familiaris; settings: in vivo
[8] = Ratio of drug concentration in spinal cord to plasma of overnight fasted Sprague-Dawley rat model with streptozotocin induced diabetic peripheral neuropathic mechanical allodynia at 0.3 mg/kg, po measured at 5.5 hrs post dose; assay type: ADME, organism-based
[9] = Solubility of the compound in propylene glycol; assay type: physicochemical
[10] = Drug concentration in Sprague-Dawley rat spinal cord with CCI induced thermal hyperalgesia at 0.3 mg/kg, po measured at 5.75 hrs post dose; assay type: ADME, organism-based; settings: read-out: Ct
[11] = biological target: AP2-associated protein kinase 1 (Homo sapiens, UniProt Q2M2I8); assay: Inhibition of […] in HEK293F cells assessed as reduction in phospho mu2 formation incubated for 3 hrs by Western blot analysis; assay type: cell-based
[12] = Metabolic stability in mouse liver microsomes assessed as CYP450-mediated metabolism by measuring parent compound remaining at 0.5 uM incubated for 10 mins in presence of NADPH by LC-MS/MS analysis; assay type: ADME; settings: read-out: Stability
[13] = Ratio of drug concentration in spinal cord to plasma of overnight fasted Sprague-Dawley rat model with streptozotocin induced diabetic peripheral neuropathic mechanical allodynia at 3 mg/kg, po measured at 5.5 hrs post dose; assay type: ADME, organism-based
[14] = Cmax in naive Sprague-Dawley rat plasma at 30 mg/kg, po measured at 5.25 hrs post dose; assay type: ADME, organism-based; design: route oral, time 5.25 hrs, dose 30 mg/kg
[15] = Apparent elimination half life in rat at 2 mg/kg, iv; assay type: ADME, organism-based; settings: in vivo, read-out: betat1/2(app) (converted)
[16] = biological target: Cyclin-G-associated kinase (Homo sapiens, UniProt O14976); assay: Inhibition of GAK (unknown origin)
[17] = Metabolic stability in human liver microsomes assessed as half life; assay type: ADME, Microsome
[18] = AUC (infinity) in rat at 3 mg/kg, po; assay type: ADME, organism-based; design: route oral, time infinity, dose 3 mg/kg; settings: in vivo
[19] = Solubility of the compound in ethanol; assay type: physicochemical
[20] = Protein binding in cynomolgus monkey plasma assessed as unbound fraction at 10 uM incubated for 5 hrs by LC-MS/MS analysis; assay type: ADME, cell-free, Macaca fascicularis
[21] = Ratio of drug concentration in spinal cord to plasma in Sprague-Dawley rat at 30 mg/kg, po measured at 5.25 hrs post dose; assay type: ADME, organism-based
[22] = Permeability of compound at pH 5.5 measured after 4 hrs by PAMPA assay; assay type: ADME; settings: read-out: permeability
[23] = Volume of distribution at steady state in monkey at 2 mg/kg, iv; assay type: ADME, organism-based, Macaca mulatta; settings: rhesus monkey, in vivo, read-out: Vdss
[24] = Drug concentration in naive Sprague-Dawley rat spinal cord at 10 mg/kg, po measured at 5.25 hrs post dose; assay type: ADME, organism-based; settings: read-out: Ct
[25] = Cmax in dog at 3 mg/kg, po; assay type: ADME, organism-based, Canis lupus familiaris; design: route oral, dose 3 mg/kg; settings: in vivo
Rattus norvegicus [26] = assay: Analgesic activity in CCI induced thermal hyperalgesia in Sprague-Dawley rat assessed as reversal of thermal hyperalgesia by measuring reduction in paw withdrawal latency at 1 mg/kg, po measured after 5.5 hrs by Hargreaves test relative to control; assay type: functional; design: scale not given: the % may be the effect or the level left
[27] = Toxicity in naive Sprague-Dawley rat assessed as motor impairment at 3 to 30 mg/kg, po measured after 5 hrs by rotarod test; assay type: organism-based; settings: in vivo, dose 3-30 mg/kg
[28] = Solubility of the compound at pH 1.2 using crystalline form of sample; assay type: physicochemical
[29] = MRT in mouse at 2 mg/kg, iv; assay type: ADME, organism-based; settings: in vivo
[30] = Metabolic stability in cynomolgus monkey liver microsomes assessed as half life; assay type: ADME, Macaca fascicularis, Microsome
[31] = Cmax in monkey at 3 mg/kg, po; assay type: ADME, organism-based, Macaca mulatta; design: route oral, dose 3 mg/kg; settings: rhesus monkey, in vivo
[32] = Cmax in naive Sprague-Dawley rat plasma at 3 mg/kg, po measured at 5.25 hrs post dose; assay type: ADME, organism-based; design: route oral, time 5.25 hrs, dose 3 mg/kg
Cytochrome P450 3A4 [33] = biological target: T1, Cytochrome P450 3A4 (Homo sapiens, UniProt P08684); assay: Time dependent inhibition of CYP3A4 (unknown origin) using TST as substrate measured at 5 mins; assay type: ADME
T1 sequence (P08684 whole entry): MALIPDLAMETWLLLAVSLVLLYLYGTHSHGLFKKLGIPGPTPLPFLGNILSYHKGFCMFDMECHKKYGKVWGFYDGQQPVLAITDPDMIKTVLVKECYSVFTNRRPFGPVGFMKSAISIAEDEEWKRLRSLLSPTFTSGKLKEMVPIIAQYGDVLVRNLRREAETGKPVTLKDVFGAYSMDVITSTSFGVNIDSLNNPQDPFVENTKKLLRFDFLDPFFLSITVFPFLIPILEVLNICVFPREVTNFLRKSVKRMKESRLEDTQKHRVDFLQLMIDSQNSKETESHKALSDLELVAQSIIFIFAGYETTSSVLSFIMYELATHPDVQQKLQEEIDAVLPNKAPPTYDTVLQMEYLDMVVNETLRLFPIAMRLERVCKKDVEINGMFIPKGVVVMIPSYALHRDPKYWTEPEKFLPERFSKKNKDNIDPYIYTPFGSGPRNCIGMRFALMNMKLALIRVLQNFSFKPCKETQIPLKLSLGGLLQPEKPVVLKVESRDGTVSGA

[34] = biological target: Solute carrier organic anion transporter family member 1B3 (Homo sapiens, UniProt Q9NPD5); assay: Inhibition of OATP1B3 (unknown origin)
Sequence of Solute carrier organic anion transporter family member 1B3 (Q9NPD5 whole entry): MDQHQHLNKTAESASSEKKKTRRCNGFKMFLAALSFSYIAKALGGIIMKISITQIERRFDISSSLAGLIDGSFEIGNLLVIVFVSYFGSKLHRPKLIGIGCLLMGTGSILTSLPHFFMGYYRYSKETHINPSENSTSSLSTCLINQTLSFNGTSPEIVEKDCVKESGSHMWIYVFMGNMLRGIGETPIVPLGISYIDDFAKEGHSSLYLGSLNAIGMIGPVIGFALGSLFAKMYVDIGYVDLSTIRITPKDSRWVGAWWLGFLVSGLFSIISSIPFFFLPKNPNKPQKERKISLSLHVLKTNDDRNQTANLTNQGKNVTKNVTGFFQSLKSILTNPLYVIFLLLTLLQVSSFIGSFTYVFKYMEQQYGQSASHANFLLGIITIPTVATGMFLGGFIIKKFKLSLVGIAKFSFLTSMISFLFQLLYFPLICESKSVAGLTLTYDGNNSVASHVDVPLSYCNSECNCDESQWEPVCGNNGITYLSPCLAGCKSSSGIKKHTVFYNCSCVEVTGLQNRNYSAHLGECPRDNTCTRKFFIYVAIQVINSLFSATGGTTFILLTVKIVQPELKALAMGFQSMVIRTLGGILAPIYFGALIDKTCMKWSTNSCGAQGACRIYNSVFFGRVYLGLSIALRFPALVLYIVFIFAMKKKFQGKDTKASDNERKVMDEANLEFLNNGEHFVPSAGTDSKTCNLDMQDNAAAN

[35] = Protein binding in rat plasma assessed as unbound fraction at 10 uM measured after 5 hrs by LC-MS/MS analysis; assay type: ADME, cell-free
[36] = biological target: ATP-binding cassette sub-family C member 2 (Homo sapiens, UniProt Q92887); assay: Inhibition of MRP2 (unknown origin)
Sequence of ATP-binding cassette sub-family C member 2 (Q92887 whole entry): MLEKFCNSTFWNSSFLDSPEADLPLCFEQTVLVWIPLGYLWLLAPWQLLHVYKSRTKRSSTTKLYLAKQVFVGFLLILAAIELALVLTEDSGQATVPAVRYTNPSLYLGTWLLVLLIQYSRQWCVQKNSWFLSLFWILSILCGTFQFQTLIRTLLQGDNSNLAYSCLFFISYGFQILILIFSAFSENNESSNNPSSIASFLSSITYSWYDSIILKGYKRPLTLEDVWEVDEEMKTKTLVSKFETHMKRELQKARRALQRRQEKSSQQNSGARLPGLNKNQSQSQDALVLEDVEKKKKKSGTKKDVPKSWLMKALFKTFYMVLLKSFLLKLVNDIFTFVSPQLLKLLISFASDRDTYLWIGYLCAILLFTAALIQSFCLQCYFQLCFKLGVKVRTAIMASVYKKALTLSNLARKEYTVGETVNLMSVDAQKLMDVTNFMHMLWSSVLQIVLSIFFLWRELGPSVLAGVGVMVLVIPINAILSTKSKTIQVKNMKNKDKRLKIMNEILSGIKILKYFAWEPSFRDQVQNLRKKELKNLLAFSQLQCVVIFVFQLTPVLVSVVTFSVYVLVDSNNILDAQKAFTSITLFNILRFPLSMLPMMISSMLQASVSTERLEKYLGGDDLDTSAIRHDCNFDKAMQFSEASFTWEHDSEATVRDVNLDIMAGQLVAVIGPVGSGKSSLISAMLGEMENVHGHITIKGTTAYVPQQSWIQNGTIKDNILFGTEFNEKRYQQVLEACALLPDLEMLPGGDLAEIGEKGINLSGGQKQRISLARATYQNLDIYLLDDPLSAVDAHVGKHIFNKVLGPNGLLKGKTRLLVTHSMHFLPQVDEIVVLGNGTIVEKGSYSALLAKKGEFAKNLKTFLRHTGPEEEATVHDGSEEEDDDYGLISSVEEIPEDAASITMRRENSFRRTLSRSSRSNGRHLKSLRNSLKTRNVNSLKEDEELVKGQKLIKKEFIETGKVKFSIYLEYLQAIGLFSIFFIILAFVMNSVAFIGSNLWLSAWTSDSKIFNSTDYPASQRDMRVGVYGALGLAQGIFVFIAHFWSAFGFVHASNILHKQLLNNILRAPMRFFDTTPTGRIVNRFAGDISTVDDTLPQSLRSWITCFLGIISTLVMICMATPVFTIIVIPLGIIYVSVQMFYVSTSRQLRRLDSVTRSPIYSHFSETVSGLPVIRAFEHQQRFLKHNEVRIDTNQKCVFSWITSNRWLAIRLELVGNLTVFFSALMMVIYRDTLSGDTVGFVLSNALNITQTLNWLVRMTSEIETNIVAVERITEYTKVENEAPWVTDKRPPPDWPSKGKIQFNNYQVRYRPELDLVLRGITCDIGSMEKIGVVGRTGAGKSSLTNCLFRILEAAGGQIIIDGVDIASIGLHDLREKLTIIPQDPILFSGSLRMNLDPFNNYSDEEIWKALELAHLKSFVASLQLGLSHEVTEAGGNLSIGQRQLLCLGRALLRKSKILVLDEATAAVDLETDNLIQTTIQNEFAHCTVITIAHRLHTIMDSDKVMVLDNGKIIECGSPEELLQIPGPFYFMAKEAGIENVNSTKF

Cytochrome P450 3A4 [37] = biological target: T1, Cytochrome P450 3A4; assay: Inhibition of CYP3A4 (unknown origin) using BFC as substrate; assay type: ADME
[38] = Volume of distribution at steady state in mouse at 2 mg/kg, iv; assay type: ADME, organism-based; settings: in vivo, read-out: Vdss
[39] = Drug concentration in overnight fasted Sprague-Dawley rat spinal cord with streptozotocin induced diabetic peripheral neuropathic mechanical allodynia at 0.1 mg/kg, po measured at 5.5 hrs post dose; assay type: ADME, organism-based; settings: read-out: Ct
[40] = Cmax in rat at 3 mg/kg, po; assay type: ADME, organism-based; design: route oral, dose 3 mg/kg; settings: in vivo
[41] = AUC (infinity) in dog at 2 mg/kg, iv; assay type: ADME, organism-based, Canis lupus familiaris; design: time infinity, route intravenous, dose 2 mg/kg; settings: in vivo
[42] = biological target: Citron Rho-interacting kinase (Homo sapiens, UniProt O14578); assay: Inhibition of CRIK (unknown origin)
[43] = Solubility of the compound in FeSSIF; assay type: physicochemical
[44] = Tmax in mouse at 3 mg/kg, po; assay type: ADME, organism-based; settings: in vivo
[45] = Permeability of compound at pH 7.4 measured after 4 hrs by PAMPA assay; assay type: ADME; settings: read-out: permeability
[46] = Solubility of the compound at pH 6.5 using crystalline form of sample; assay type: physicochemical
[47] = Oral bioavailability in dog at 3 mg/kg; assay type: ADME, organism-based, Canis lupus familiaris; settings: in vivo
[48] = Drug uptake in Spinal cord of CCI induced thermal hyperalgesia Sprague-Dawley rat model assessed as spinal occupancy at 1 mg/kg, po measured at 5.75 hrs post dose in presence of [3H]BMT-046091; assay type: ADME, organism-based; settings: in vivo
[49] = Cmax in overnight fasted Sprague-Dawley rat plasma with streptozotocin induced diabetic peripheral neuropathic mechanical allodynia at 0.3 mg/kg, po measured at 5.5 hrs post dose; assay type: ADME, organism-based; design: route oral, time 5.5 hrs, dose 0.3 mg/kg
[50] = biological target: BMP-2-inducible protein kinase (Homo sapiens, UniProt Q9NSY1); assay: Inhibition of BIKE (unknown origin)
Sequence of BMP-2-inducible protein kinase (Q9NSY1 whole entry): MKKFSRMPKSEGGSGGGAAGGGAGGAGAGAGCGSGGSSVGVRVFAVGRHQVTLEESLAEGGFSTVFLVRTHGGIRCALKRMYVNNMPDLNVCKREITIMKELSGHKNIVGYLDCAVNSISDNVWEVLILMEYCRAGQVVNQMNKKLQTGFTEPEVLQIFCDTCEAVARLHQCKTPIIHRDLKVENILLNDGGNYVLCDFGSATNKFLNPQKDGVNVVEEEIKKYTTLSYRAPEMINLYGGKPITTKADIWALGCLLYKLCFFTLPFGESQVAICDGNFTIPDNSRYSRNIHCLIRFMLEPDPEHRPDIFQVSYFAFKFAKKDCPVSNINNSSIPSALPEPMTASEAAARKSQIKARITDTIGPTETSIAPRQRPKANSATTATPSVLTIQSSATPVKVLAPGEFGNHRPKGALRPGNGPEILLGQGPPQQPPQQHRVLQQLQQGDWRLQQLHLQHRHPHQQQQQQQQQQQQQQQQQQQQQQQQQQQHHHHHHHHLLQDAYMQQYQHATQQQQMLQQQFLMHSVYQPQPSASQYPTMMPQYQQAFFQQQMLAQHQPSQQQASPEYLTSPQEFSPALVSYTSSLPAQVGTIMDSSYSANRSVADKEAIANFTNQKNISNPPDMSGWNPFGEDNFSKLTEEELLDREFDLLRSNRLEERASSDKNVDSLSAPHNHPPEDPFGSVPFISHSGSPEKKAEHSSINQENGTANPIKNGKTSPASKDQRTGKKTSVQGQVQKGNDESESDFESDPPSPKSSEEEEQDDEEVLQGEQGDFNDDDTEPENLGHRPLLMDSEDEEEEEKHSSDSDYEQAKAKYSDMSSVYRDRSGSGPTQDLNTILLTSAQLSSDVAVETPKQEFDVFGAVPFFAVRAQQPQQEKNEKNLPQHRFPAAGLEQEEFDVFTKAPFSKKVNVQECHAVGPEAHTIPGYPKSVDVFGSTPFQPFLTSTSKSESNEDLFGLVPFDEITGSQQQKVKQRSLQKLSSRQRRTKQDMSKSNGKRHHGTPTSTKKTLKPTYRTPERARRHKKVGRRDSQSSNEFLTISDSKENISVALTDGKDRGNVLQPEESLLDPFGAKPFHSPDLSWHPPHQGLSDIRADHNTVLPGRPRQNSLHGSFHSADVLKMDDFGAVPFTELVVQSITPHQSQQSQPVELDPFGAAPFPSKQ

Cytochrome P450 2D6 = Cytochrome P450 2D6 (Homo sapiens, UniProt P10635); assay: Inhibition of CYP2D6 (unknown origin); assay type: ADME
Sequence of Cytochrome P450 2D6 (P10635 whole entry): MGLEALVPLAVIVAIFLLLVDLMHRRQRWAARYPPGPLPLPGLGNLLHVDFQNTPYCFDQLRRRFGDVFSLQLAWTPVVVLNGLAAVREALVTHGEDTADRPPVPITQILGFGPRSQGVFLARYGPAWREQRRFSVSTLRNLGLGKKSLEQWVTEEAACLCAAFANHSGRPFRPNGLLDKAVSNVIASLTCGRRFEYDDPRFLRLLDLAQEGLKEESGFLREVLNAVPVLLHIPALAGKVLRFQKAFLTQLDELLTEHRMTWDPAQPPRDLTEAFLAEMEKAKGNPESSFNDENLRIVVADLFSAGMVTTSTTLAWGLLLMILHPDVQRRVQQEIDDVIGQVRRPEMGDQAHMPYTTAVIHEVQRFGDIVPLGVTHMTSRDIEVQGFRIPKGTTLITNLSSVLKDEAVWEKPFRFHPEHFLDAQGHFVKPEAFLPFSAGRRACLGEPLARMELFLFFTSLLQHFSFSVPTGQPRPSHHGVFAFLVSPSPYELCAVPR

[51] = Clearance in dog at 2 mg/kg, iv; assay type: ADME, organism-based, Canis lupus familiaris; settings: in vivo

Cmax [2]: 6 nM
Tmax [4]: 4 h
logD [5]: 1.48
clearance [6]: 5 mL/min/kg
Tmax [7]: 1.3 h
Kp at 5.5 h [8]: 8
solubility [9]: > 50 mg/mL
concentration at 5.75 h [10]: 431 nM
IC50 [11]: 2 nM
remaining at 10 min, 0.5 µM [12]: 86%
Kp at 5.5 h [13]: 7
Cmax [14]: 1650 nM
half-life [15]: 522 min
IC50 [16]: 800 nM
half-life [17]: > 120 min
AUC(0-inf) [18]: 880 ng·h/mL
solubility [19]: > 50 mg/mL
fraction unbound at 5 h, 10 µM [20]: 0.053
Kp at 5.25 h [21]: 20
Papp at 4 h [22]: 60 ×10⁻⁶ cm/s
Vd [23]: 20.6 L/kg
concentration at 5.25 h [24]: 16.1 µM
Cmax [25]: 200 ng/mL
solubility thermodynamic [28]: 2000 µg/mL (≈ 5.19 mM)
MRT [29]: 63.8 h
half-life [30]: 12.7 min
Cmax [31]: 20 ng/mL
Cmax [32]: 200 nM
IC50 (Cytochrome P450 3A4 [33]): > 40 µM
IC50 [34]: > 30 µM
fraction unbound at 5 h, 10 µM [35]: 0.1
IC50 [36]: > 30 µM
IC50 (Cytochrome P450 3A4 [37]): > 20 µM
Vd [38]: 19 L/kg
concentration at 5.5 h [39]: 75 nM
Cmax [40]: 60 ng/mL
AUC(0-inf) [41]: 1210 ng·h/mL
IC50 [42]: 410 nM
solubility [43]: 840 µg/mL (≈ 2.18 mM)
Tmax [44]: 5 h
Papp at 4 h [45]: 72.4 ×10⁻⁶ cm/s
solubility thermodynamic [46]: 440 µg/mL (≈ 1.14 mM)
bioavailability [47]: 87%
Occ [48]: 96%
Cmax [49]: 25 nM
IC50 [50]: 1900 nM
IC50 (Cytochrome P450 2D6): > 20 µM
clearance [51]: 28.5 mL/min/kg
SMILES: CC(C)C[C@](C)(N)COc1ccc(-c2ccnc(C(F)F)c2)nc1C(F)F [PILAVAPADIN]
Efficacy (Rattus norvegicus [1]): 20%
Efficacy (Rattus norvegicus [3]): 20%
Activity (Rattus norvegicus [26]): 97%
Activity [27]: Non-Toxic
